Literature values as cited in patent US5948422A, “Oral dosage-forms containing a β-lactam antibiotic” (Yamanouchi Europe B.V., priority 1995, dated 1999).
Structures can show the parent of a compound that is named as a salt.

Conditions: compared with free acid, other salts and ester

bioavailability on oral administration: best bioavailability
Structure (SMILES): CC1(C)S[C@@H]2[C@H](NC(=O)COc3ccccc3)C(=O)N2[C@H]1C(=O)O [potassium salt, phenoxymethylpenicillin potassium]
